Where “and” joins values, the source holds several entries; their conditions need not be identical. Equal entries are not always repeated. Calls of active or inactive are those of the source.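 The calls were made as follows: active = caspase luminescence falls with dose and the half-maximal concentration AC50 from the fitted curve is at or below a set limit; inconclusive = flat fit at 30 to 70% signal loss, or invalid fit; inactive = AC50 above the limit, or signal rises instead.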
system: INS-1E cytokine-induced caspase-3/7, Caspase-Glo luminescence, 48 h; assay: inhibitors of cytokine-induced caspase-3/7 activity, dose response, orthogonal assay for beta-cell apoptosis protection project, INS-1E rat cells, luminescence (AID 463206)

SMILES | AC50
N#Cc1c([N+](=O)[O-])cc([N+](=O)[O-])cc1S(=O)(=O)Cc1ccccc1 | > 26 µM (inactive)
O=C(/C=C/c1ccccc1)NC(=S)NNC(=O)c1cnccn1 | > 26 µM (inactive)
Cc1ccc(-c2[nH]ncc2/C=N/n2c(COc3ccccc3C)nc3ccccc3c2=O)cc1 | > 26 µM (inactive)
Cc1ccc(Oc2nc(-c3ccccn3)nc3ccccc23)cc1 | > 26 µM (inactive)
Fc1cccc(Cl)c1-c1nnc2ccc3ccccc3n12 | > 26 µM (inactive)
CCOc1ccc(-c2cc(C(=O)NCCCn3ccnc3)c3cc(Br)ccc3n2)cc1 | > 12 µM (inactive)
c1ccc2c(CN3CCCCCC3)c[nH]c2c1 | 4.24 µM
Cc1ccccc1C(=O)N1CCN(c2ccc(NC(=O)c3cccnc3)cc2)CC1 | > 26 µM (inactive)
Cc1ncc(CO)c(/C=N/Nc2ccc(C(F)(F)F)cn2)c1O | > 26 µM (inactive)
CCN1/C(=C/c2cccc[n+]2C)Sc2ccc(OC)cc21 | > 26 µM (inactive)
O=C(c1ccc(-c2ccc(Cl)cc2)o1)N1CCN(c2ccc([N+](=O)[O-])cc2Cl)CC1 | > 26 µM (inactive)
Cc1ccc(O)c(CNc2cccc3cccnc23)c1 | > 12 µM (inactive)
CC(C)(C)c1cc([N+](=O)[O-])cc(C(C)(C)C)c1O | > 26 µM (inactive)
Cc1cc(C)n2nc(SCc3nnc(SCc4ccccc4C)s3)nc2n1 | > 26 µM (inactive)
C/C(Cn1nnc([N+](=O)[O-])n1)=N\NC(=O)c1ccccc1Cl | > 26 µM (inactive)
Cc1ccc2nc(NNC(=O)c3ccc(S(=O)(=O)N4CCc5ccccc5C4)cc3)sc2c1 | > 26 µM (inactive)
N#Cc1c(Cl)nsc1NC(=O)c1ccccc1 | > 26 µM (inactive)
Cc1sc2ncnc(NCC(C)(C)N3CCOCC3)c2c1C | > 26 µM (inactive)
CCC(Sc1nc(C)cc(C)n1)C(=O)NC1=NN=C(c2ccc(C)cc2)CS1 (centres undefined) | > 26 µM (inactive)
CCN(CC)c1ccc(/C=N/NC(=O)c2ccoc2C)c(O)c1 | > 26 µM (inactive)
C[C@H](CO)N1C[C@H](C)[C@@H](CN(C)C(=O)NC2CCCCC2)Oc2c(NC(=O)Nc3ccc(C(F)(F)F)cc3)cccc2C1=O | > 26 µM (inactive)
O=[N+]([O-])c1cnc(Sc2ccncn2)s1 | > 26 µM (inactive)
COc1ccc(-n2c(=S)[nH]c3cc(C(=O)Nc4ccccc4OC)ccc3c2=O)cc1 | > 26 µM (inactive)
COc1ccc(/C(C)=N/Nc2nc(C)cc(-c3ccccc3)n2)cc1 | > 26 µM (inactive)
CC(=O)c1ccc(N2CCN(S(=O)(=O)c3ccc4c(c3)CC(C)N4C(C)=O)CC2)cc1 (centres undefined) | > 26 µM (inactive)

SMILES | AC50
CCc1c(C)sc2nc(C(C)C)nc(SCC(=O)N3CCc4ccccc4C3)c12 | > 26 µM (inactive)
CCN1CCN(Cc2ccc(NC(=O)c3ccc(C)c(NC(=O)C(=O)c4c[nH]c5ccccc45)c3)cc2C(F)(F)F)CC1 | > 12 µM (inactive) and > 26 µM (inactive)
COc1cc(NC(C)CCCN)c2ncccc2c1 (centres undefined) | > 26 µM (inactive)
CC1CCC/C=C/C2CC(O)CC2C(O)/C=C/C(=O)O1 (centres undefined) | > 26 µM (inactive)
Cc1cccc(NC(=S)Nc2ccc3cn[nH]c3c2)c1 | > 26 µM (inactive)
COc1ccc(CCNc2ncnc3sc(C)cc23)cc1OC | > 26 µM (inactive)
COc1cccc(/C=N/Nc2cc(N3CCOCC3)ncn2)c1O | > 26 µM (inactive)
OCCNc1nc(Nc2ccc(Cl)c(Cl)c2)nc2ccccc12 | > 26 µM (inactive)
Oc1cccc(C(Nc2nccs2)c2ccc3cccnc3c2O)c1 (centres undefined) | > 26 µM (inactive)
Cc1ccc(-c2cn(-c3ccc(SC(F)F)cc3)c3[n+]2CCC3)cc1 | > 26 µM (inactive)
CCCN(CCC)C(=O)c1cc([N+](=O)[O-])cc2c1-c1ccc([N+](=O)[O-])cc1C2=C(C#N)C#N | > 26 µM (inactive)
COc1cccc(N=Nc2ccc(O)c3ncccc23)c1 | > 26 µM (inactive)
Cc1ccc(C)c(N=Nc2ccc(O)c3ncccc23)c1 | > 26 µM (inactive)
Cc1c(C(C)C)c(=O)n(-c2ccc(S(=O)(=O)NCc3ccccc3)cc2)n1C | > 26 µM (inactive)
Cc1nc(Nc2ccc(Cl)c(Cl)c2)sc1C(=O)Nc1ccccc1 | > 26 µM (inactive)
N#CC(c1ccc(Cl)cc1)c1ccc2c(C(F)(F)F)cc(C(F)(F)F)nc2n1 (centres undefined) | > 26 µM (inactive)
COc1ccc(C(=O)N/N=C(\C)c2ccccn2)cc1OC | > 26 µM (inactive)
CCOC(=O)C(C)/C(C)=N/NC(=O)c1cc2ccccc2cc1O (centres undefined) | > 26 µM (inactive)
CCOc1cc(/C=N/NC(=O)c2cc(-c3cccc(OC)c3)nc3ccccc23)ccc1O | > 26 µM (inactive)
CN(C)c1cc[n+](Cc2c(Cl)cccc2Cl)cc1 | > 26 µM (inactive)
CCN(c1ccccc1)S(=O)(=O)c1ccc(NC(=O)c2nc(S(C)(=O)=O)ncc2Cl)cc1 | > 26 µM (inactive)
CCCCNc1c(-c2ccc(OC)c(SC(C)CC)c2)nc2ccc(C)cn12 (centres undefined) | > 26 µM (inactive)
COC(=O)c1ccc2[nH]c3cccc(/C(=C/c4ccccc4)c4ccccc4)c3c2c1 | > 26 µM (inactive)
Brc1ccccc1CN1CCN(Cc2c[nH]c3ccccc23)CC1 | > 26 µM (inactive)

Source: PubChem BioAssay AID463206 (Broad Institute, 2010)
